Values joined by “and” are separate entries in the source; they are usually repeats but may differ in a detail not shown here. Equal values may be shown once.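 Tested at 5 concentrations; 48 h exposure; 96-well plates; endpoints linearly interpolated, else capped at highest concentration. At the GI50, growth is halved. TGI is the concentration that stops growth completely.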
Legend:
Experiment in all cases: NCI tumour cell line growth inhibition, 48 h
[1] = test system: SF-539 CNS
[2] = test system: OVCAR-8 ovarian
[3] = test system: NCI-H226 lung
[4] = test system: 786-0 renal
[5] = test system: K-562 leukemia
[6] = test system: SF-268 CNS
[7] = test system: NCI-H522 lung
[8] = test system: CCRF-CEM leukemia
[9] = test system: KM12 colon
[10] = test system: SK-MEL-5 melanoma

Row | SMILES | GI50 [1] | TGI [1] | GI50 [2] | TGI [2] | GI50 [3] | TGI [3] | GI50 [4] | TGI [4] | GI50 [5] | TGI [5] | GI50 [6] | TGI [6] | GI50 [7] | TGI [7] | GI50 [8] | TGI [8] | GI50 [9] | TGI [9] | GI50 [10] | TGI [10]
1 | Cn1cc(-c2ccc(=O)n(Cc3cccc(-c4ncc(OCCN5CCOCC5)cn4)c3)n2)cn1 | > 100 µM | > 100 µM | 36.5 µM | > 100 µM | 23.5 µM | > 100 µM | > 100 µM | > 100 µM | 99.3 µM | > 100 µM | > 100 µM | > 100 µM | 74.8 µM | > 100 µM | 82.1 µM | > 100 µM | 52.2 µM | > 100 µM | 19.6 µM | 59.1 µM
2 | COC(=O)c1cnc(=O)n(C2CC(O)C(CO)O2)c1 (configuration not stated) | > 100 µM | > 100 µM | > 100 µM | > 100 µM | > 100 µM | > 100 µM | > 100 µM | > 100 µM | > 100 µM | > 100 µM | > 100 µM | > 100 µM | > 100 µM | > 100 µM | – | > 100 µM | > 100 µM | > 100 µM | > 100 µM | > 100 µM
3 | CC1=C(C(=O)Nc2ccccc2)C(c2ccc3c(c2)OCO3)C(C(=O)Nc2ccccc2)=C(C)N1 | – | 76 µM | – | > 100 µM | – | > 100 µM | – | > 100 µM | – | 66 µM | – | > 100 µM | – | 73.3 µM | – | 41 µM | – | > 100 µM | – | > 100 µM
4 | C/C(=N\N(C)C)c1sc(-n2nc(-c3ccccc3)cc2-c2ccccc2)nc1C | – | > 100 µM | – | > 100 µM | – | > 100 µM | – | > 100 µM | – | > 100 µM | – | > 100 µM | – | > 100 µM | – | > 100 µM | – | > 100 µM | – | > 100 µM
5 | CC1(C)N=C(N)N=C(N)N1c1cccc(/C=C/C=C/c2cccc([N+](=O)[O-])c2)c1 | 4.43 µM | 17.6 µM | 13.8 µM | 30 µM | 10.9 µM | 34.1 µM | 21.3 µM | 52.9 µM | 3.29 µM | 19.6 µM | 3.64 µM | 17.4 µM | 4.72 µM | 20.1 µM | 3.61 µM | 18.9 µM | 2.59 µM | 15.5 µM | 2.96 µM | 12.5 µM
6 | Nc1ccn(C=C=CCO)c(=O)n1 | > 1000 µM | > 1000 µM | – | > 1000 µM | > 1000 µM | > 1000 µM | > 1000 µM | > 1000 µM | > 1000 µM | > 1000 µM | > 1000 µM | > 1000 µM | > 1000 µM | > 1000 µM | – | > 1000 µM | > 1000 µM | > 1000 µM | > 1000 µM | > 1000 µM
7 | S=c1[nH]nc(COc2ccc(Cl)cc2)o1 | – | > 100 µM | – | > 100 µM | – | > 100 µM | – | > 100 µM | – | > 100 µM | – | > 100 µM | – | > 100 µM | – | > 100 µM | – | > 100 µM | – | > 100 µM
8 | Cc1ccc(-c2c(C#N)c(N)nc(N3CCOCC3)c2C#N)o1 | 48.3 µM | > 100 µM | 72.6 µM | > 100 µM | 46.8 µM | > 100 µM | 19.1 µM | 57.9 µM | 73.8 µM | > 100 µM | > 100 µM | > 100 µM | 36.4 µM | > 100 µM | 36.2 µM | > 100 µM | 46.6 µM | > 100 µM | 40.5 µM | > 100 µM
9 | C[C@H]1[C@H](OC(=O)CCC(=O)O)O[C@@H]2O[C@]3(C)CC[C@H]4[C@H](C)CC[C@@H]1[C@@]24OO3 | 0.667 µM | 14.5 µM | 0.445 µM | > 46.4 µM | 0.956 µM | 34.6 µM | 1.12 µM | 25.8 µM | 0.443 µM | 10 µM | 1.04 µM | 43.2 µM | 0.365 µM | 5.43 µM | 0.452 µM | 19.7 µM | 0.168 µM | 12 µM | 0.315 µM | 11.3 µM
10 | COc1ccccc1C(=O)/C=C/c1cc2cccc(OC)c2[nH]c1=O | 0.0211 µM | 0.0848 µM | 0.0392 µM | 15 µM | 0.0716 µM | 3.47 µM | 0.0401 µM | 1.38 µM | < 0.0125 µM | > 89.1 µM | 0.0935 µM | 2.06 µM | 0.101 µM | 2.16 µM | < 0.0182 µM | > 37.9 µM | < 0.0167 µM | 1.13 µM | 0.0374 µM | 0.843 µM
11 | CCOC(=O)CCC(NC(=O)c1ccc(N=Cc2nc3cc(C(F)(F)F)ccc3nc2-c2ccccc2)cc1)C(=O)OCC (configuration not stated) | 6.03 µM | 45.7 µM and 28.4 µM | > 100 µM | 27.4 µM and > 100 µM | > 100 µM | > 100 µM | 30.8 µM | 18.9 µM and > 100 µM | > 100 µM | > 100 µM | 22.9 µM | 31.8 µM and > 100 µM | 21.5 µM | 50 µM and > 100 µM | > 100 µM | > 100 µM | > 100 µM | 50 µM and > 100 µM | > 100 µM | 50 µM and > 100 µM
12 | Cc1cc2c(C)c3cc(C)c(N)cc3nc2cc1N | 0.455 µM | 3.48 µM | 0.499 µM | 7.54 µM | 0.864 µM | 4.56 µM | 0.929 µM | 8.84 µM | 0.548 µM | 4.96 µM | 0.604 µM | 6.53 µM | 0.527 µM | 2.02 µM | 0.93 µM | 10.6 µM | 0.745 µM | 10.2 µM | 1.73 µM | 5.28 µM
13 | COc1cc[nH]c1/C=C1\C(=O)Nc2ccc(F)c(C#C[C@@H](O)[C@@H](N)[C@@H](C)O)c21 | 0.472 µM | 1.12 µM | 0.843 µM | 5.15 µM | 0.526 µM | 2.54 µM | 0.708 µM | 3.37 µM | 0.651 µM | 3.44 µM | 0.663 µM | 2.42 µM | 0.575 µM | 1.77 µM | 0.709 µM | 2.35 µM | 0.0312 µM | 2.19 µM | 0.676 µM | 2.35 µM

Reference: PubChem BioAssay (NCI)
